# Assay results as given in publication PMC9003190, “MeNINV1: An Alkaline/Neutral Invertase Gene of Manihot esculenta, Enhanced Sucrose Catabolism and Promoted Plant Vegetative Growth in Transgenic Arabidopsis” (Plants, 2022).
# T1: MeNINV1 (Manihot esculenta, UniProt G5DC09)
# T1 construct: gene NINV1; full-length ORF in pDR195, expressed in invertase-deficient yeast SEY2102; crude enzyme supernatant, empty-vector control
# T1 sequence (G5DC09 1-685): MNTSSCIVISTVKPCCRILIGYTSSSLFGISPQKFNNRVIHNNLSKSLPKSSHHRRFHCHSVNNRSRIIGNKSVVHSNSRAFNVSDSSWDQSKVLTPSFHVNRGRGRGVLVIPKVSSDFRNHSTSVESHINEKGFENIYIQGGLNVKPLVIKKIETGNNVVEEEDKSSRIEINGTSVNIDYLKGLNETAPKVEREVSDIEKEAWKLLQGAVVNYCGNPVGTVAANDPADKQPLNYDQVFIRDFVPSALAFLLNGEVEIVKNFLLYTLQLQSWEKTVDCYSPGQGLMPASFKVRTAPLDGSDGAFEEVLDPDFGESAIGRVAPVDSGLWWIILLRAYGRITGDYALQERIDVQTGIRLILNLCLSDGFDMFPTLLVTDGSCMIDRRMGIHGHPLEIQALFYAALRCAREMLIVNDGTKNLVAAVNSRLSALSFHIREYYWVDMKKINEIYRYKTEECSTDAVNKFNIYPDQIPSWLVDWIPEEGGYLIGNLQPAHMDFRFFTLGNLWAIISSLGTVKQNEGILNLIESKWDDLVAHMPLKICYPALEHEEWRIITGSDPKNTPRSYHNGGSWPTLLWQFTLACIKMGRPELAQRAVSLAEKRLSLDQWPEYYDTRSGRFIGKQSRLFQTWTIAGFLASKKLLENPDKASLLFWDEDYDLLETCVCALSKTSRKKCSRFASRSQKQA
# Experiments:
# [1] = biological target: T1, MeNINV1; test: DNS reducing sugar assay, crude yeast extract; assay type: biochemical; settings: product inhibition of sucrose hydrolysis; pH 6.5
# [2] = substrate: OC[C@H]1O[C@@](CO)(O[C@H]2O[C@H](CO)[C@@H](O)[C@H](O)[C@H]2O)[C@@H](O)[C@@H]1O; test: DNS reducing sugar assay, crude yeast extract; assay type: biochemical, Manihot esculenta; settings: pH 6.5, optimum temperature 40 °C
Molecule,"DNS reducing sugar assay, crude yeast extract [1]",Km [2] [mM]
OCC1(O)OC[C@@H](O)[C@@H](O)[C@@H]1O (some centres unmarked) [fructose],"The addition of fructose, a decomposition product of sucrose, to the reaction solution inhibited",
"MeNINV1 (Manihot esculenta) (protein, full-length ORF in pDR195, expressed in invertase-deficient yeast SEY2102; crude enzyme supernatant, empty-vector control) MNTSSCIVISTVKPCCRILIGYTSSSLFGISPQKFNNRVIHNNLSKSLPKSSHHRRFHCHSVNNRSRIIGNKSVVHSNSRAFNVSDSSWDQSKVLTPSFHVNRGRGRGVLVIPKVSSDFRNHSTSVESHINEKGFENIYIQGGLNVKPLVIKKIETGNNVVEEEDKSSRIEINGTSVNIDYLKGLNETAPKVEREVSDIEKEAWKLLQGAVVNYCGNPVGTVAANDPADKQPLNYDQVFIRDFVPSALAFLLNGEVEIVKNFLLYTLQLQSWEKTVDCYSPGQGLMPASFKVRTAPLDGSDGAFEEVLDPDFGESAIGRVAPVDSGLWWIILLRAYGRITGDYALQERIDVQTGIRLILNLCLSDGFDMFPTLLVTDGSCMIDRRMGIHGHPLEIQALFYAALRCAREMLIVNDGTKNLVAAVNSRLSALSFHIREYYWVDMKKINEIYRYKTEECSTDAVNKFNIYPDQIPSWLVDWIPEEGGYLIGNLQPAHMDFRFFTLGNLWAIISSLGTVKQNEGILNLIESKWDDLVAHMPLKICYPALEHEEWRIITGSDPKNTPRSYHNGGSWPTLLWQFTLACIKMGRPELAQRAVSLAEKRLSLDQWPEYYDTRSGRFIGKQSRLFQTWTIAGFLASKKLLENPDKASLLFWDEDYDLLETCVCALSKTSRKKCSRFASRSQKQA",,10.59
